# Test results taken from patent US6911474B2, “Methods, compounds, and compositions for reducing body fat and modulating fatty acid metabolism” (The Regents of the University of California, priority 2001, dated 2005).
# Where “and” joins values, the source holds several entries; their conditions need not be identical. Equal entries are not always repeated.
# Legend:
# c-fos mRNA = c-fos mRNA in situ hybridization in brain; type: in vivo, rat; conditions: 10 mg per kg, i.p., 60 min
# Experimental: In situ hybridization. Rats were accustomed to the handling and injection procedure for five days. On day six, vehicle or drug OEA (10 mg per kg, i.p.), or oleic acid (10 mg per kg) was administered, and the rats killed 60 min later by decapitation under anesthesia. In situ hybridization analyses were conducted using ^35S-labeled cRNA probes for c-fos (Guthrie et al., Proc. Natl. Acad. Sci. U.S.A., 90:3329-3333 (1993)) and choline acetyl transferase (ChAT) (Lauterbom et al., Brain Res. Mol. Brain Res., 17:59-69 (1993)). Average hybridization densities were determined from at least three tissue sections per rat. Statistical significance was evaluated using one-way analysis of variance (ANOVA) followed by the Tukey-Kramer post-hoc test for paired comparisons.
# Hepatocyte = test: [14C]oleate oxidation to ketone bodies in hepatocytes; type: cell-based, rat
# Experimental: Compounds can also be assayed for their effect on fatty acid metabolism. The effect of the candidate compound on fatty acid metabolism can be measured by measurements of fatty acid oxidation in primary cultures of liver cells. Hepatocytes may be used to determine the rate of oleate oxidation to ketone bodies and carbon dioxide. Such cells can be isolated from adult rat liver by enzymatic digestion as described by Beynen et al. in Diabetes 28:828 (1979). Cells typically are cultured in suspension and incubated in Krebs-Henseleit's bicarbonate medium supplemented with bovine serum albumin and glucose as described by Guzmán & Geelen, Biochem. J. 287:487(1992). The protein concentration of the cultured cells can be determined and cells seeded in 2 ml media so that 4-6 mg protein per ml is present in the reaction mixture. Cells can be incubated for 10 minutes at 37° C. with [^14C]-oleic acid (Arnersham), in the presence or absence of 10 μM OEA, reactions may be stopped with 200 μl 2M perchloric acid and acid-soluble products extracted with chloroform/methanol/water (5:1:1, vol:vol:vol). The aqueous phase can be removed and washed twice more. Protein concentration can be determined using a Lowry assay. The rate of oleate conversion into ketone bodies may be expressed as rnmol of oleate oxidized per hour per mg protein and may be determined using liquid scintillation counting. […]
# [1] = Elevated plus maze anxiety test; type: in vivo, rat; conditions: FIG. 4g
# Experimental: Other behavioral assays. The elevated plus maze test was conducted as described (Navarro et al., Neuroreport, 8:491-496 (1997)) after the administration of vehicle or OEA (20 mg per kg, i.p.). Horizontal activity in an open field (Beltramo et al., J. Neurosci., 20:3401-3407 (2000)) and pain threshold in the hot plate test (55° C.) (Beltramo et al., Science, 277:1094-1097 (1997)) were measured 15 min after injection of vehicle or OEA (20 mg per kg). Rectal temperature was measured using a digital thermometer (Martin-Calderón et al., Eur. J. Pharmacol., 344:77-86. (1998)).
# [2] = Plasma hormone levels by radioimmunoassay (HPA axis); type: in vivo, rat; conditions: Table 3
# Experimental: Blood chemistry. Plasma β-hydroxybutyrate and glycerol were measured using commercial kits (Sigrna, St. Louis, Mo.). Plasma prolactin, corticosterone and luteinizing hormone were quantified by radioimmunoassay (Navarro et al., Neuroreport, 8:491-496 (1997)).
# Astrocyte = test: [14C]oleate oxidation to ketone bodies in astrocytes; type: cell-based, rat
# [3] = Food intake in capsaicin-treated rats (sensory fibers destroyed); type: in vivo, rat; conditions: OEA 10 mg per kg, i.p., FIG. 6a,c
# Source text: Chemicals. FAEs and [^2H4] FAEs were synthesized in the laboratory (Giuffrida et al., “Lipid Second Messengers” (ed. Laychock, S. G. & Rubin, R. P.) 113-133 (CRC Press LLC, Boca Raton, Fla., 1998)); 1,2-dioleyl-sn-glycero-phosphoethanolamine-N-oleyl was purchased from Avanti Polar Lipids (Alabaster, Ala.); SR141716A was provided by RBI (Natick, Mass.) as part of the Chemical Synthesis Program of the NIMH (N01MH30003); SR144528 was a generous gift of Sanofi Recherche; all other drugs were from Tocris (Ballwin, Mo.) or Sigma (Saint Louis, Mo.). FAE were dissolved in dimethylsulphoxide (DMSO) and administered in 70% DMSO in sterile saline (acute treatments) or 5% Tween 80/5% propylenglycol in sterile saline (subchronic treatments) (1 ml per kg, i.p.). Capsaicin was administered in 10% Tween 80/10% ethanol/80% saline; SR141716A, SR144528, CCK-8 and CP-93129 in 5% Tween 80/5% propylenglycol/90% saline (1 ml per kg, i.p.).
# These findings support the hypothesis that OEA causes hypophagia by acting at a peripheral site, and that sensory fibers are required for this effect.
compound,measurement,setting,value
"CCCCCCCC/C=C\CCCCCCCC(=O)NCCO [OEA, Oleoylethanolamide]",c-fos expression in other brain regions,c-fos mRNA,not significantly affected
same,"c-fos mRNA levels in the PVN, supraoptic nucleus and NST",c-fos mRNA,highly localized increase
same,Stimulatory effect of 10 μM OEA (%) on [14C]oleate oxidation to ketone bodies,"Hepatocyte; Hepatocyte, 10 μM, 10 min incubation",21+−6% and 21 ± 6%
same,fatty acid oxidation in words,Hepatocyte; primary cultures of liver cells,significantly stimulates
same,anxiety-like symptoms,[1],did not produce anxiety-like symptoms
same,activity of the hypothalamus-pituitary-adrenal (HPA) axis,[2],did not alter
same,Stimulatory effect of 10 μM OEA (%) on [14C]oleate oxidation to ketone bodies,"Astrocyte; Astrocyte, 10 μM, 30 min incubation",2 ± 6%
same,fatty acid oxidation in words,Astrocyte; brain-derived astroglial cell cultures,no effect
same,food intake response of capsaicin-treated rats,[3],failed to respond
